# Assay results as given in PubChem BioAssay (NCI).
#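 Five concentrations, 48 hours, 96-well plates. The concentration for 50% growth inhibition is given as GI50. TGI: concentration producing complete growth inhibition.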
# Experiments:
# Experiment in all cases: NCI-60 cell line screen, 48 h
# A549 NSCLC = tested on: A549 NSCLC
# HCT-116 colon = tested on: HCT-116 colon
# HOP-62 NSCLC = tested on: HOP-62 NSCLC
# KM20L2 colon = tested on: KM20L2 colon
# M19-MEL melanoma = tested on: M19-MEL melanoma
# OVCAR-3 ovarian = tested on: OVCAR-3 ovarian
# SK-MEL-5 melanoma = tested on: SK-MEL-5 melanoma
# SN12C renal = tested on: SN12C renal
# SR leukemia = tested on: SR leukemia
# DU-145 prostate = tested on: DU-145 prostate
smiles,measurement,setting,value
COC(=O)CCC12CCC(=O)C1[C@@H](C(=O)OC)C[C@H]2C(=O)OC (some centres not stated),TGI,A549 NSCLC,> 100 µM
same,TGI,HCT-116 colon,> 100 µM
same,TGI,HOP-62 NSCLC,> 100 µM
same,TGI,KM20L2 colon,> 100 µM
same,TGI,M19-MEL melanoma,> 100 µM
same,TGI,OVCAR-3 ovarian,> 100 µM
same,TGI,SK-MEL-5 melanoma,> 100 µM
same,TGI,SN12C renal,> 100 µM
Cc1ccc(Oc2ccccc2N)cc1,TGI,A549 NSCLC,> 100 µM
same,TGI,HCT-116 colon,36 µM
same,TGI,HOP-62 NSCLC,> 100 µM
same,TGI,KM20L2 colon,30.4 µM
same,TGI,OVCAR-3 ovarian,55 µM
same,TGI,SK-MEL-5 melanoma,26.2 µM
same,TGI,SN12C renal,> 100 µM
same,TGI,SR leukemia,> 100 µM
COc1ccc(OC(C(=O)O)C(C)C)c2c1CCCC2=O (configuration not stated),TGI,A549 NSCLC,> 100 µM
same,TGI,HCT-116 colon,> 100 µM
same,TGI,HOP-62 NSCLC,> 100 µM
same,TGI,KM20L2 colon,> 100 µM
same,TGI,M19-MEL melanoma,> 100 µM
same,TGI,OVCAR-3 ovarian,> 100 µM
same,TGI,SK-MEL-5 melanoma,> 100 µM
same,TGI,SN12C renal,> 100 µM
Cc1c(C(=O)/C=C/C=C/c2ccccc2)[n+](=O)c2ccccc2n1[O-],TGI,A549 NSCLC,82.3 µM
same,TGI,HOP-62 NSCLC,54.5 µM
same,TGI,KM20L2 colon,> 100 µM
same,TGI,M19-MEL melanoma,> 100 µM
same,TGI,OVCAR-3 ovarian,83.3 µM
same,TGI,SK-MEL-5 melanoma,44.4 µM
same,TGI,SN12C renal,73.2 µM
COC(=O)c1cc2c(cc1Cl)SC1=NN(C)S(=O)N1S2(=O)=O (configuration not stated),GI50,A549 NSCLC,> 100 µM
same,TGI,A549 NSCLC,> 100 µM
same,GI50,DU-145 prostate,> 100 µM
same,TGI,DU-145 prostate,> 100 µM
same,GI50,HCT-116 colon,> 100 µM
same,TGI,HCT-116 colon,> 100 µM
same,GI50,HOP-62 NSCLC,> 100 µM
same,TGI,HOP-62 NSCLC,> 100 µM
same,GI50,OVCAR-3 ovarian,> 100 µM
same,TGI,OVCAR-3 ovarian,> 100 µM
same,GI50,SK-MEL-5 melanoma,> 100 µM
same,TGI,SK-MEL-5 melanoma,> 100 µM
same,GI50,SN12C renal,> 100 µM
same,TGI,SN12C renal,> 100 µM
same,GI50,SR leukemia,> 100 µM
same,TGI,SR leukemia,> 100 µM
CN1CCN(CCOc2ccc(-c3cnc4c(-c5cccc(F)c5)cnn4c3)cc2)CC1,GI50,A549 NSCLC,1.9 µM
same,TGI,A549 NSCLC,3.94 µM
same,GI50,DU-145 prostate,1.74 µM
same,TGI,DU-145 prostate,3.28 µM
same,GI50,HCT-116 colon,1.79 µM
same,TGI,HCT-116 colon,3.51 µM
same,GI50,HOP-62 NSCLC,1.72 µM
same,TGI,HOP-62 NSCLC,3.73 µM
same,GI50,OVCAR-3 ovarian,1.87 µM
same,TGI,OVCAR-3 ovarian,4.03 µM
same,GI50,SK-MEL-5 melanoma,1.69 µM
same,TGI,SK-MEL-5 melanoma,3.08 µM
same,GI50,SN12C renal,1.82 µM
same,TGI,SN12C renal,3.76 µM
same,GI50,SR leukemia,4.02 µM
same,TGI,SR leukemia,> 100 µM
Cc1cc(C)c2c(n1)sc1c(N)ncnc12,GI50,A549 NSCLC,> 25 µM
same,TGI,A549 NSCLC,> 25 µM
same,GI50,DU-145 prostate,> 25 µM
same,TGI,DU-145 prostate,> 25 µM
same,GI50,HCT-116 colon,24.4 µM
same,TGI,HCT-116 colon,> 25 µM
same,GI50,HOP-62 NSCLC,> 25 µM
same,TGI,HOP-62 NSCLC,> 25 µM
same,GI50,OVCAR-3 ovarian,> 25 µM
same,TGI,OVCAR-3 ovarian,> 25 µM
same,GI50,SK-MEL-5 melanoma,> 25 µM
same,TGI,SK-MEL-5 melanoma,> 25 µM
same,GI50,SN12C renal,> 22.3 µM
same,TGI,SN12C renal,> 25 µM
same,GI50,SR leukemia,9.43 µM
same,TGI,SR leukemia,> 25 µM
N#C/C(=C\c1cccc(O)c1O)C(N)=O,TGI,A549 NSCLC,> 100 µM
same,TGI,HCT-116 colon,> 100 µM
same,TGI,HOP-62 NSCLC,> 100 µM
same,TGI,KM20L2 colon,> 100 µM
same,TGI,M19-MEL melanoma,> 100 µM
same,TGI,OVCAR-3 ovarian,> 100 µM
same,TGI,SN12C renal,> 100 µM
Cn1c(=O)c2[nH]c(SCCN3CCOCC3)nc2n(C)c1=S,TGI,A549 NSCLC,> 100 µM
same,TGI,DU-145 prostate,> 100 µM
same,TGI,HCT-116 colon,> 100 µM
same,TGI,HOP-62 NSCLC,> 100 µM
same,TGI,OVCAR-3 ovarian,> 100 µM
same,TGI,SK-MEL-5 melanoma,> 100 µM
same,TGI,SN12C renal,> 100 µM
same,TGI,SR leukemia,> 100 µM
CCCn1cnc2c(SCC(=O)O)nc(N)nc21,TGI,A549 NSCLC,> 100 µM
same,TGI,DU-145 prostate,> 100 µM
same,TGI,HCT-116 colon,> 100 µM
same,TGI,HOP-62 NSCLC,> 100 µM
same,TGI,OVCAR-3 ovarian,> 100 µM
same,TGI,SK-MEL-5 melanoma,> 100 µM
same,TGI,SN12C renal,> 100 µM
same,TGI,SR leukemia,> 100 µM
CC[C@@]1(OC(=O)CN)C(=O)OCc2c1cc1n(c2=O)Cc2c-1nc1cc3c(cc1c2CCl)OCO3,GI50,A549 NSCLC,0.0201 µM
same,TGI,A549 NSCLC,> 100 µM
same,GI50,DU-145 prostate,< 0.01 µM
same,TGI,DU-145 prostate,> 33.6 µM
same,GI50,HCT-116 colon,< 0.01 µM
same,TGI,HCT-116 colon,> 100 µM
same,GI50,HOP-62 NSCLC,< 0.01 µM
same,GI50,OVCAR-3 ovarian,0.372 µM
same,TGI,OVCAR-3 ovarian,4.1 µM
same,GI50,SK-MEL-5 melanoma,< 0.0118 µM
same,TGI,SK-MEL-5 melanoma,0.5 µM
same,GI50,SN12C renal,< 0.0117 µM
same,TGI,SN12C renal,3.76 µM
same,GI50,SR leukemia,< 0.01 µM
same,TGI,SR leukemia,> 100 µM
